{"source": "PubChem BioAssay AID1918930", "about": "(Molecular Pharmacology Branch, DTP, NCI, 2023)", "test_system": "233499-124-R-J3-PDC complex spheroid viability, % test/control", "assay": "Anticancer human tumor 233499-124-R-J3-PDC patient-derived colon adenocarcinoma cell line growth inhibition", "conditions": "for IC50: curve of first compound; for viability, T/C: stronger effect = lower value", "method_in_brief": "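Drug combinations with the LSD1 inhibitor iadademstat tested on tumor cells co-cultured as spheroids with endothelial cells and mesenchymal stem cells. Concentrations descended in half-log increments from clinical Cmax or 10 microM.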", "data": [{"compound": "Nc1ccn(C2OC(CO)C(O)C2(F)F)c(=O)n1", "note": "(stereo not given) + NC1CCC(NC2CC2c2ccccc2)CC1;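 also: spheroids exposed to agents for one week before readout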", "values": [{"measurement": "IC50", "setting": "second compound 0.1 µM", "value": 2.48, "unit": "nM"}, {"measurement": "IC50", "setting": "second compound 0.316 µM", "value": 4.47, "unit": "nM"}, {"measurement": "IC50", "setting": "second compound 1 µM", "value": 6.13, "unit": "nM"}, {"measurement": "IC50", "setting": "second compound 3.16 µM", "value": 1.07, "unit": "nM"}, {"measurement": "IC50", "setting": "second compound 10 µM", "value": "< 0.949", "unit": "nM"}, {"measurement": "viability, T/C", "setting": "second compound 0.1 µM, first compound 0.000949 µM", "value": 100, "unit": "%"}, {"measurement": "viability, T/C", "setting": "second compound 0.1 µM, first compound 0.003 µM", "value": 35.6, "unit": "%"}, {"measurement": "viability, T/C", "setting": "second compound 0.1 µM, first compound 0.00949 µM", "value": 43.9, "unit": "%"}, {"measurement": "viability, T/C", "setting": "second compound 0.1 µM, first compound 0.03 µM", "value": 21.9, "unit": "%"}, {"measurement": "viability, T/C", "setting": "second compound 0.1 µM, first compound 0.0949 µM", "value": 30.3, "unit": "%"}, {"measurement": "viability, T/C", "setting": "second compound 0.1 µM, first compound 0.3 µM", "value": 21.1, "unit": "%"}, {"measurement": "viability, T/C", "setting": "second compound 0.316 µM, first compound 0.000949 µM", "value": 99.4, "unit": "%"}, {"measurement": "viability, T/C", "setting": "second compound 0.316 µM, first compound 0.003 µM", "value": 58.8, "unit": "%"}, {"measurement": "viability, T/C", "setting": "second compound 0.316 µM, first compound 0.00949 µM", "value": 22.2, "unit": "%"}, {"measurement": "viability, T/C", "setting": "second compound 0.316 µM, first compound 0.03 µM", "value": 32.3, "unit": "%"}, {"measurement": "viability, T/C", "setting": "second compound 0.316 µM, first compound 0.0949 µM", "value": 37.9, "unit": "%"}, {"measurement": "viability, T/C", "setting": "second compound 0.316 µM, first compound 0.3 µM", "value": 41.5, "unit": "%"}, {"measurement": "viability, T/C", "setting": "second compound 1 µM, first compound 0.000949 µM", "value": 88.7, "unit": "%"}, {"measurement": "viability, T/C", "setting": "second compound 1 µM, first compound 0.003 µM", "value": 62.1, "unit": "%"}, {"measurement": "viability, T/C", "setting": "second compound 1 µM, first compound 0.00949 µM", "value": 44.4, "unit": "%"}, {"measurement": "viability, T/C", "setting": "second compound 1 µM, first compound 0.03 µM", "value": 31.1, "unit": "%"}, {"measurement": "viability, T/C", "setting": "second compound 1 µM, first compound 0.0949 µM", "value": 26.6, "unit": "%"}, {"measurement": "viability, T/C", "setting": "second compound 1 µM, first compound 0.3 µM", "value": 35.1, "unit": "%"}, {"measurement": "viability, T/C", "setting": "second compound 3.16 µM, first compound 0.000949 µM", "value": 51.4, "unit": "%"}, {"measurement": "viability, T/C", "setting": "second compound 3.16 µM, first compound 0.003 µM", "value": 40.9, "unit": "%"}, {"measurement": "viability, T/C", "setting": "second compound 3.16 µM, first compound 0.00949 µM", "value": 36.9, "unit": "%"}, {"measurement": "viability, T/C", "setting": "second compound 3.16 µM, first compound 0.03 µM", "value": 47.2, "unit": "%"}, {"measurement": "viability, T/C", "setting": "second compound 3.16 µM, first compound 0.0949 µM", "value": 18.9, "unit": "%"}, {"measurement": "viability, T/C", "setting": "second compound 3.16 µM, first compound 0.3 µM", "value": 39.5, "unit": "%"}, {"measurement": "viability, T/C", "setting": "second compound 10 µM, first compound 0.000949 µM", "value": 59.2, "unit": "%"}, {"measurement": "viability, T/C", "setting": "second compound 10 µM, first compound 0.003 µM", "value": 29.7, "unit": "%"}, {"measurement": "viability, T/C", "setting": "second compound 10 µM, first compound 0.00949 µM", "value": 29.2, "unit": "%"}, {"measurement": "viability, T/C", "setting": "second compound 10 µM, first compound 0.03 µM", "value": 34.9, "unit": "%"}, {"measurement": "viability, T/C", "setting": "second compound 10 µM, first compound 0.0949 µM", "value": 27.3, "unit": "%"}, {"measurement": "viability, T/C", "setting": "second compound 10 µM, first compound 0.3 µM", "value": 37, "unit": "%"}]}]}
